Measured values from PubChem BioAssay AID292 (DTP/NCI, 2004).
Values joined by “and” are separate entries in the source; they are usually repeats but may differ in a detail not shown here. Equal entries are not always repeated. Inconclusive results and toxic doses are left out.

Test system: B6C3F1 mice, ip Sarcoma M5076, median survival T/C
Experiment: NCI In Vivo Anticancer Drug Screen. Data for tumor model Sarcoma M5076 (intraperitoneal) in B6C3F1 mice
Conditions: endpoint: median survival time, higher = longer survival
Summary of the method: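 Antitumour effect is judged in tumour-bearing mice by comparing survival after compound dosing against vehicle-only animals, reported as T/C.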

[1] = dose: 2.5 mg/kg/injection, schedule: Q04DX004 (ip), vehicle: saline
[2] = dose: 75.0 mg/kg/injection, schedule: Q04DX004 (ip), vehicle: saline with Tween-80
[3] = dose: 150.0 mg/kg/injection, schedule: Q04DX004 (ip), vehicle: saline with Tween-80
[4] = dose: 300.0 mg/kg/injection, schedule: Q04DX004 (ip), vehicle: saline with Tween-80
[5] = dose: 50.0 mg/kg/injection, schedule: Q04DX004 (ip), vehicle: Klucel (hydroxypropylcellulose) (HPC)
[6] = dose: 100.0 mg/kg/injection, schedule: Q04DX004 (ip), vehicle: Klucel (hydroxypropylcellulose) (HPC)
[7] = dose: 200.0 mg/kg/injection, schedule: Q04DX004 (ip), vehicle: Klucel (hydroxypropylcellulose) (HPC)
[8] = dose: 400.0 mg/kg/injection, schedule: Q04DX004 (ip), vehicle: Klucel (hydroxypropylcellulose) (HPC)
[9] = dose: 37.5 mg/kg/injection, schedule: Q04DX004 (ip), vehicle: Klucel (hydroxypropylcellulose) (HPC)
[10] = dose: 75.0 mg/kg/injection, schedule: Q04DX004 (ip), vehicle: Klucel (hydroxypropylcellulose) (HPC)
[11] = dose: 150.0 mg/kg/injection, schedule: Q04DX004 (ip), vehicle: Klucel (hydroxypropylcellulose) (HPC)
[12] = dose: 300.0 mg/kg/injection, schedule: Q04DX004 (ip), vehicle: Klucel (hydroxypropylcellulose) (HPC)
[13] = dose: 25.0 mg/kg/injection, schedule: Q04DX004 (ip), vehicle: Klucel (hydroxypropylcellulose) (HPC)
[14] = dose: 50.0 mg/kg/injection, schedule: Q04DX004 (ip), vehicle: saline with Tween-80
[15] = dose: 100.0 mg/kg/injection, schedule: Q04DX004 (ip), vehicle: saline with Tween-80
[16] = dose: 200.0 mg/kg/injection, schedule: Q04DX004 (ip), vehicle: saline with Tween-80
[17] = dose: 400.0 mg/kg/injection, schedule: Q04DX004 (ip), vehicle: saline with Tween-80
[18] = dose: 50.0 mg/kg/injection, schedule: Q04DX004 (ip), vehicle: water
[19] = dose: 100.0 mg/kg/injection, schedule: Q04DX004 (ip), vehicle: water

In the case of CC(=O)c1cccc(NC2C(N)C(NC(=O)N(C)C)(C(C)O)C(C)(O)C2(O)COC(=O)c2c(C)cccc2O)c1 (stereo not drawn), the T/C [1] is reported as 112 % of control and 114 % of control, the T/C (dose: 5.0 mg/kg/injection, schedule: Q04DX004 (ip), vehicle: saline) is reported as 105 % of control and 115 % of control and the T/C (dose: 10.0 mg/kg/injection, schedule: Q04DX004 (ip), vehicle: saline) is reported as 117 % of control and 120 % of control. For the same molecule, the T/C (dose: 20.0 mg/kg/injection, schedule: Q04DX004 (ip), vehicle: saline) was 115 % of control.

With Cc1ccc(C(=O)NC2C(=O)NC(C(C)C)C(=O)N3CCCC3C(=O)N(C)CC(=O)N(C)C(C(C)C)C(=O)OC2C)c2c1Oc1c(c(C(=O)NC3C(=O)NC(C(C)C)C(=O)N4CCCC4C(=O)N(C)CC(=O)N(C)C(C(C)C)C(=O)OC3C)c3nc(-c4ccccc4)c(=O)oc3c1C)N2 (stereo not drawn) the T/C (dose: 0.25 mg/kg/injection, schedule: Q04DX004 (ip), vehicle: water) was 101 % of control and 113 % of control, the T/C (dose: 0.5 mg/kg/injection, schedule: Q04DX004 (ip), vehicle: water) was 99 % of control and the T/C (dose: 1.0 mg/kg/injection, schedule: Q04DX004 (ip), vehicle: water) was 114 % of control.

NC(=O)c1oc([N+](=O)[O-])c(-c2ccccc2)c1-c1ccccc1 was tested, and the T/C (dose: 37.5 mg/kg/injection, schedule: Q04DX004 (ip), vehicle: saline with Tween-80) was 98 % of control, the T/C [2] was 93 % of control and the T/C [3] was 94 % of control. The T/C [4] was 89 % of control.

COc1ccccc1C1C(C#N)C(=O)NC(=O)C1C#N (stereo not drawn) was tested, and the T/C [5] was 100 % of control, the T/C [6] was 100 % of control and the T/C [7] was 95 % of control. The T/C [8] was 102 % of control.

With COc1cc2c(c(OC)c1OC)-c1ccc(OC)c(=O)cc1[C@@H](NC(C)=O)CC2 the T/C (dose: 0.38 mg/kg/injection, schedule: Q04DX004 (ip), vehicle: saline) was 106 % of control, the T/C (dose: 0.54 mg/kg/injection, schedule: Q04DX004 (ip), vehicle: saline) was 101 % of control and the T/C (dose: 0.75 mg/kg/injection, schedule: Q04DX004 (ip), vehicle: saline) was 112 % of control. For the same molecule, the T/C (dose: 0.9 mg/kg/injection, schedule: Q04DX004 (ip), vehicle: saline) was 116 % of control, the T/C [1] was 123 % of control and the T/C (dose: 185.0 micrograms/kg/injection, schedule: Q04DX004 (ip), vehicle: saline) was 96 % of control. For the same molecule, the T/C (dose: 375.0 micrograms/kg/injection, schedule: Q04DX004 (ip), vehicle: saline) was 95 % of control, the T/C (dose: 750.0 micrograms/kg/injection, schedule: Q04DX004 (ip), vehicle: saline) was 100 % of control and the T/C (dose: 1500.0 micrograms/kg/injection, schedule: Q04DX004 (ip), vehicle: saline) was 100 % of control. For the same molecule, the T/C (dose: 3000.0 micrograms/kg/injection, schedule: Q04DX004 (ip), vehicle: saline) was 97 % of control.

In the case of COc1cc(C(CC(C)=O)c2cc3c(cc2OC(C)=O)OCO3)cc(OC)c1OC (stereo not drawn) (tested in a mixture with another compound), the T/C (dose: 27.0 mg/kg/injection, schedule: Q04DX004 (ip), vehicle: saline with Tween-80) is reported as 100 % of control, the T/C (dose: 45.0 mg/kg/injection, schedule: Q04DX004 (ip), vehicle: saline with Tween-80) is reported as 101 % of control and 103 % of control and the T/C [2] is reported as 111 % of control and 119 % of control. The T/C (dose: 125.0 mg/kg/injection, schedule: Q04DX004 (ip), vehicle: saline with Tween-80) was 119 % of control and the T/C (dose: 208.3 mg/kg/injection, schedule: Q04DX004 (ip), vehicle: saline with Tween-80) was 124 % of control.

With N#CC1C(=O)NC(=S)NC1c1ccc(Cl)c(Cl)c1 (stereo not drawn) the T/C [9] was 94 % of control, the T/C [10] was 99 % of control and the T/C [11] was 97 % of control. For the same molecule, the T/C [12] was 91 % of control and the T/C (dose: 600.0 mg/kg/injection, schedule: Q04DX004 (ip), vehicle: Klucel (hydroxypropylcellulose) (HPC)) was 89 % of control.

For CCC(=O)N=c1sc(SCc2ccccc2)nn1C(=O)SC (tested in a mixture with another compound), the T/C [13] was 101 % of control, the T/C [5] was 96 % of control and the T/C [6] was 101 % of control. For the same molecule, the T/C [7] was 89 % of control and the T/C [8] was 86 % of control.

For COc1cc([C@@H]2c3cc4c(cc3[C@H](O)[C@H]3COC(=O)[C@H]23)OCO4)cc(OC)c1OC, the T/C (dose: 2.0 mg/kg/injection, schedule: Q04DX004 (ip), vehicle: saline with Tween-80) was 117 % of control, the T/C (dose: 5.8 mg/kg/injection, schedule: Q04DX004 (ip), vehicle: saline with Tween-80) was 117 % of control and the T/C (dose: 15.98 mg/kg/injection, schedule: Q04DX004 (ip), vehicle: saline with Tween-80) was 154 % of control. For the same molecule, the T/C (dose: 44.4 mg/kg/injection, schedule: Q04DX004 (ip), vehicle: saline with Tween-80) was 151 % of control.

For N[C@@H](Cc1c[nH]c2ccccc12)C(=O)Nc1nncs1, the T/C (dose: 16.67 mg/kg/injection, schedule: Q03HX012 (ip), vehicle: saline) was 102 % of control, the T/C (dose: 33.34 mg/kg/injection, schedule: Q03HX012 (ip), vehicle: saline) was 101 % of control and the T/C (dose: 66.67 mg/kg/injection, schedule: Q03HX012 (ip), vehicle: saline) was 109 % of control. The T/C (dose: 100.0 mg/kg/injection, schedule: Q04DX004 (ip), vehicle: suspension in saline) was 95 % of control, the T/C (dose: 133.34 mg/kg/injection, schedule: Q03HX012 (ip), vehicle: saline) was 120 % of control and the T/C (dose: 200.0 mg/kg/injection, schedule: Q04DX004 (ip), vehicle: suspension in saline) was 111 % of control. For the same molecule, the T/C (dose: 266.67 mg/kg/injection, schedule: Q03HX012 (ip), vehicle: saline) was 120 % of control, the T/C (dose: 400.0 mg/kg/injection, schedule: Q04DX004 (ip), vehicle: suspension in saline) was 101 % of control and the T/C (dose: 800.0 mg/kg/injection, schedule: Q04DX004 (ip), vehicle: suspension in saline) was 118 % of control.

For Cc1ccc2c(c1)C1(SC(C)C(=O)N1c1ccc(Cl)cc1)C(=O)N2 (stereo not drawn), the T/C [14] was 96 % of control, the T/C [15] was 101 % of control and the T/C [16] was 98 % of control. For the same molecule, the T/C [17] was 93 % of control and the T/C (dose: 800.0 mg/kg/injection, schedule: Q04DX004 (ip), vehicle: saline with Tween-80) was 86 % of control.

CN(C)CCOc1cccc2c1C(=O)c1ccccc1C2=O was tested, and the T/C [18] was 90 % of control and the T/C [19] was 97 % of control.

O=C1CN(CCN2CC(=O)N(CN3CCOCC3)C(=O)C2)CC(=O)N1CN1CCOCC1 was tested, and the T/C [18] was 97 % of control and the T/C [19] was 109 % of control.

With CCOC(=O)Nc1cc2c(c(N)n1)N=C(c1ccccc1)CO2 the T/C [14] was 101 % of control, the T/C [15] was 107 % of control and the T/C [16] was 109 % of control. The T/C [17] was 105 % of control.

For O=C(O)[C@H](Cc1ccccc1)N1C(=O)c2ccccc2C1=O, the T/C (dose: 62.5 mg/kg/injection, schedule: Q04DX004 (ip), vehicle: DMSO) was 92 % of control, the T/C (dose: 125.0 mg/kg/injection, schedule: Q04DX004 (ip), vehicle: DMSO) was 110 % of control and the T/C (dose: 250.0 mg/kg/injection, schedule: Q04DX004 (ip), vehicle: DMSO) was 100 % of control.

In the case of COc1oc(C2C/C(=C/C(C)=C/C(C)=C/C(C)=C/c3ccc([N+](=O)[O-])cc3)CO2)c(C)c(=O)c1C (stereo not drawn), the T/C (dose: 1.0 mg/kg/injection, schedule: Q04DX004 (ip), vehicle: saline) is reported as 100 % of control, the T/C (dose: 2.0 mg/kg/injection, schedule: Q04DX004 (ip), vehicle: saline) is reported as 102 % of control and 104 % of control and the T/C (dose: 4.0 mg/kg/injection, schedule: Q04DX004 (ip), vehicle: saline) is reported as 102 % of control and 103 % of control. For the same molecule, the T/C (dose: 8.0 mg/kg/injection, schedule: Q04DX004 (ip), vehicle: saline) was 106 % of control and 115 % of control.

CC/C(=C(\c1ccccc1)c1ccc(OCCN(C)C)cc1)c1ccccc1 was tested, and the T/C (dose: 12.5 mg/kg/injection, schedule: Q04DX004 (ip), vehicle: Klucel (hydroxypropylcellulose) (HPC)) was 101 % of control, the T/C [13] was 107 % of control and the T/C [5] was 89 % of control and 103 % of control.

For CC1C(c2ccccc2)OC(N2CCOCC2)C(C)(C)CN1C (stereo not drawn), the T/C [3] was 101 % of control, the T/C [4] was 104 % of control and the T/C (dose: 600.0 mg/kg/injection, schedule: Q04DX004 (ip), vehicle: saline with Tween-80) was 99 % of control.

In the case of O=C(Nc1cccc2ccccc12)C1C(=O)C(=O)N(c2cccc3ccccc23)C1=O (stereo not drawn), the T/C [9] is reported as 105 % of control, the T/C [10] is reported as 104 % of control and the T/C [11] is reported as 88 % of control. For the same molecule, the T/C [12] was 91 % of control.
